Values joined by “and” are separate entries in the source; they are usually repeats but may differ in a detail not shown here. Identical values can stand only once.
Assays:
[1] = system: Hs27 cells; test: 48 h MTS growth inhibition assay in Hs27 cells; format: cell-based, human; conditions: for EC50: Homo sapiens, HS27, 48 h, read-out: Hs27 48 h EC50; for Hs27 48 h EC10: highest concentration giving 90% relative new cell growth after 48 h, 0.5% DMSO
Procedure: A cell growth assay using the MTS reagent was conducted to assess the general toxicity of each chalcone compound. […] Experiments were conducted in triplicate. In a typical experiment, there are two plates. The first is the control plate, which allows one to assess the starting cell population on the day of drug addition (Day 0). The second plate is the test plate where cells are plated and tested with different drug concentrations on Day 0. For example, either CHO cells or Hs27 cells were plated in a 200 µL volume at 1000 cells/well on both the control and test plates and incubated overnight to allow the cells to adhere. On Day 0, 1 μL of PBS was added to the control plate wells so that their total volume was 201 μL. MTS reagent (Promega Cell Titer 96 Aqueous non-radioactive cell proliferation reagent, Promega, Madison, WI, USA) was added (20 μL) to each well on the control plate, and that plate was incubated for 4 h in a 5% CO2 atmosphere at 37 °C and then read on the plate reader.
On Day 0, 1 μL of a 200× stock solution of each chalcone was added to the respected well on the test plate, and each condition was tested in triplicate. Drug solutions were prepared in advance in 100% DMSO and dosed so that the final DMSO concentration was 0.5%. For example, 1 μL of chalcone solution was added to the cells plated in each well in 200 μL of media. Of note, the respective chalcone addition occurred after an initial overnight incubation of each cell line in each well to reach Day 0 (the drugging day). After the chalcone was added, the cells were incubated in 5% CO2 for 48 h at 37 °C. After 48 h, the MTS reagent (Promega, Madison, WI, USA) was added (20 μL), and the test plates were incubated for an additional 4 h, and then, absorbance at 490 nm was measured on a BioTek Synergy MX plate reader. […] IC50 values were determined from the corresponding plot of relative absorbance at 490 nm vs. the drug concentration.
For highly colored materials like the chalcones, it is important to consider the contribution of the compound’s own absorbance to the MTS assay. To correct for the absorbance contribution of the chalcone itself, we measured each chalcone’s absorbance (Chalcone Abs) at 490 nm at the respective concentration (e.g., 10 µM) and subtracted the absorbance of the media background (blank Abs). This net value was then subtracted out of the Day 2 absorbance value to provide the % relative growth via the following equation:(1) % Relative Growth = (Day 2 Abs−Day 2 blank Abs)−Chalcone Abs−blank Abs−(Day 0 Abs−Day 0 blank Abs)/(Day 2 Control Abs −Day 2 blank Abs)−(Day 0 Abs−Day 0 blank Abs) ×100%
With the chalcones in hand, we then evaluated their growth-inhibition properties in Chinese hamster ovary (CHO-K1) cells and human Hs27 fibroblast cells.

[2] = system: PIV5-GFP; test: PIV5-GFP viral GFP expression in Hs27 cells by flow cytometry; format: cell-based, parainfluenza virus 5; conditions: for % GFP relative to DMSO treated (10 µM): Hs27 cells infected with PIV5-GFP; for Ability to reduce viral GFP expression (Figure 4B screen): 10 µM chalcone before and after infection; for Inhibition of GFP expression, pre-infection treatment only: 10 µM for 24 h before infection, media lacking chalcone after; for GFP-positive cells, chalcone added at 0 or 6 hpi: 10 µM added at 0 (or 6) hpi, DMSO ~80%; for Effect on number of GFP-positive cells, chalcone added at 18 hpi: 10 µM added at 18 hpi; for GFP-positive cells: 10 µM chalcone 24 h before infection and after, DMSO control ~80-82% GFP+; for GFP-positive cells, virus spread, chalcone added at 0 and 24 hpi: 10 µM added at 0 and 24 hpi, DMSO nearly 60%; for Inhibition of virus spread, chalcone added at 48 and 72 hpi: 10 µM added at 48 and 72 hpi
Procedure: Parainfluenza virus 5 (PIV5) expressing green fluorescence protein (GFP) was derived from cDNA, grown at 37 °C in Madin–Darby bovine kidney (MDBK) cells and titered on CV-1 (African green monkey kidney) cells with a fibroblast morphology as previously described. MDBK and CV-1 cells were the kind gift of Dr. Robert Lamb (Northwestern University). Cells were infected with virus diluted in DMEM supplemented with 10% bovine serum albumin (BSA) for 1 h or mock infected with media alone. Following incubation, cells were washed with phosphate-buffered saline (PBS) and cultured in DMEM supplemented with 2% heat-inactivated (HI) FBS.
Chalcone treatments were performed in DMEM supplemented with 10% HI FBS at the indicated concentrations and for indicated periods of time. Chalcone stocks were reconstituted in 100% dimethyl sulfoxide (DMSO) at a concentration of 10 mM and were serially diluted to working concentrations in DMSO. DMSO control treatments to test the effect of the vehicle were performed at volumes corresponding to the volume of chalcone added during each experiment (i.e., 1 µL chalcone DMSO solution/1 mL DMEM [10 µM] utilized alongside the DMSO control of 1 µL/1 mL DMEM). For cytotoxicity assays, untreated controls were subtracted from DMSO and chalcone sample values to account for the background signal.
For cytotoxicity assays, cells were stained with propidium iodide (PI) at a dilution of 1:100. Cell viability was determined via flow cytometry using the CytoFLEX (Beckman Coulter, Brea, CA, USA). CytExpert software (Beckman Coulter, version 2.4) was used to analyze independent events. PIV5 infection was monitored using flow cytometry via the FITC channel by analyzing GFP expression of individual cells. ZIKV infection was monitored utilizing Flavivirus group antigen–antibody (D1-4G2-4-15; Novus Biologicals, Littleton, CO, USA) staining for the ZIKV envelope protein. Cells were fixed and permeabilized using eBioscience Intracellular Fixation and Permeabilization Buffer (Invitrogen, Thermo Fisher Scientific, MA, USA) according to the manufacturer’s instructions. Secondary staining was performed using an anti-Alexa Fluor 488 (AF488) antibody (Invitrogen, Thermo Fisher Scientific, MA, USA). OC43 infection was monitored utilizing a primary antibody targeted toward the OC43 nucleocapsid protein (NP, MAB9013, Sigma-Aldrich, St. Louis, MO, USA). Secondary staining was performed using an AF488 antibody. Cells were fixed and permeabilized as previously described. LACV infection was monitored utilizing an anti-LACV Gc 807.31ab antibody kindly provided by Andrew Pekosv. Secondary staining was performed using an AF488 antibody. Cells were fixed and permeabilized as previously described.
To measure the effect of chalcone treatment on PIV5 virus growth, Hs27 cells were infected with PIV5-GFP. This engineered negative sense single-stranded RNA virus expresses GFP, which serves as a genome-encoded protein readout. After entering a cell, PIV5 must first undergo primary transcription to convert its genome into mRNA. As genome replication begins, nascent genomes then become templates for further conversion to mRNA and viral gene expression becomes amplified in a process called secondary transcription. For viral proteins to be detectable in cell culture, this amplification must first take place, making the expression of GFP a direct indicator of whether secondary transcription has successfully occurred. […] As shown in the representative data in Figure 4A, ~82% of DMSO-treated PIV5-GFP infected cells were positive for GFP expression. This was reduced to ~2% GFP-positive cells after treatment with 8o. […] These chalcones were therefore selected for further screening for cytotoxicity.
The GFP IC50 was defined as the concentration of chalcone required to inhibit the GFP expression (as measured via flow cytometry) by 50% when compared to DMSO-treated cells. […]

[3] = low MOI (0.1 in Figure 7), read at 96 hpi

Compound	EC50 [1] [µM]	Hs27 48 h EC10 [1] [µM]	Ability to reduce viral GFP expression (Figure 4B screen) ([2]; MOI 10, 24 hpi)	Inhibition of GFP expression, pre-infection treatment only ([2]; MOI 10, 24 hpi)	further results
CCOc1ccc(Br)cc1/C=C/C(=O)c1c(O)cccc1OCc1ccc(-c2ccccc2)cc1 [Chalcone 8v, (2E)-1-[2-(Biphenyl-4-Ylmethoxy)-6-Hydroxy-Phenyl]3-(5-Bromo-2-Ethoxy-Phenyl)-Propenone]	18.4 ± 0.9	3.4 ± 0.2	–	–	% GFP relative to DMSO treated (10 µM) ([2]; 10 µM): 63.3%
COc1cc(/C=C/C(=O)c2c(O)cccc2OCc2ccccc2)cc(OC)c1OC [Chalcone 8z, (2E)-1-(2-Benzloxy-6-Hydroxy-Phenyl)-3-(3,4,5-Trimethoxy-Phenyl)-Propenone]	5 ± 0.2	4.0 ± 0.2	most notable performance	–	–
COc1ccc(Br)cc1/C=C/C(=O)c1c(O)cccc1OCc1ccc(-c2ccccc2)cc1 [Chalcone 8w, (2E)-1-[2-(Biphenyl-4-Ylmethoxy)-6-Hydroxy-Phenyl]3-(5-Bromo-2-Methoxy-Phenyl)-Propenone]	8.2 ± 0.5	6.5 ± 0.5	most notable performance	–	–
COc1ccc(Br)cc1/C=C/C(=O)c1c(O)cccc1OC [Chalcone 8f]	2.3 ± 0.2	1.4 ± 0.1	most notable performance	–	–
COc1ccccc1/C=C/C(=O)c1ccccc1O [Chalcone 8a]	20.3 ± 2.1	0.6 ± 0.04	–	no significant inhibition of GFP expression	GFP-positive cells regardless of time of addition ([2]; 10 µM added at 0, 6 or 18 hpi, MOI 10, read at 42 hpi): ~ 80%; Inhibition of viral gene expression, PIV5 ([2]; 10 µM, Hs27 cells): did not inhibit viral gene expression; GFP-positive cells with increasing concentration ([2]; 2.5, 5, 7.5 or 10 µM before and after infection, MOI 10, 24 hpi): ~ 80%; Effect on number of GFP-positive cells, virus spread, all times of addition ([2]; low MOI (0.1 in Figure 7), 10 µM added at 0, 24, 48 or 72 hpi, read at 96 hpi): modestly reduced
COc1ccc(Br)cc1/C=C/C(=O)c1c(O)cccc1OCc1ccccc1 [Chalcone 8l]	7.8 ± 0.6	6.1 ± 0.5	most notable performance	–	–
CCOc1ccc(Br)cc1/C=C/C(=O)c1c(O)cccc1OCc1ccccc1 [Chalcone 8o]	13.3 ± 1.1	8.3 ± 0.5	most notable performance	no significant inhibition of GFP expression	GFP-positive cells, chalcone added at 0 or 6 hpi ([2]; MOI 10, read at 42 hpi): ~25%; Effect on number of GFP-positive cells, chalcone added at 18 hpi ([2]; MOI 10, read at 42 hpi): no significant effect; GFP-positive cells ([2]; MOI 10, 24 hpi): ~ 2% and 2.10% and < 10%; % GFP relative to DMSO treated (10 µM) ([2]; 10 µM): 14.6%; GFP-positive cells, virus spread, chalcone added at 0 and 24 hpi [2, 3]: less than 10%; Inhibition of virus spread, chalcone added at 48 and 72 hpi [2, 3]: inhibition was not seen
COc1ccc(Br)cc1/C=C/C(=O)c1c(O)cccc1OCCC(C)C [Chalcone 8s, (2E)-3-(5-Bromo-2-Methoxy-Phenyl)-1-[2-Hydroxy-6-(3-Methyl-Butoxy)-Phenyl]-Propenone]	13.9 ± 0.5	6.9 ± 0.6	most notable performance	–	–
COc1ccc(O)cc1/C=C/C(=O)c1c(O)cccc1OCc1ccccc1 [Chalcone 8x, (2E)-1-(2-Benzloxy-6-Hydroxy-Phenyl)-5-(5-Hydroxy-2-Methoxy-Phenyl)-Propenone]	3.4 ± 0.3	1.1 ± 0.07	most notable performance	–	–
CCOc1ccc(Cl)cc1/C=C/C(=O)c1c(O)cccc1OCc1ccccc1 [Chalcone 8p]	19.3 ± 1.9	8.7 ± 0.7	most notable performance	no significant inhibition of GFP expression	GFP-positive cells, chalcone added at 0 or 6 hpi ([2]; MOI 10, read at 42 hpi): ~25%; Effect on number of GFP-positive cells, chalcone added at 18 hpi ([2]; MOI 10, read at 42 hpi): no significant effect; GFP-positive cells ([2]; MOI 10, 24 hpi): < 10%; GFP-positive cells, virus spread, chalcone added at 0 and 24 hpi [2, 3]: less than 10%; Inhibition of virus spread, chalcone added at 48 and 72 hpi [2, 3]: inhibition was not seen
